Results on 1 molecule are retold here after patent US9763979B2, “Cardioplegic preparation” (Universitat Bern, priority 2008, dated 2017).

This data set can be described thus: Experimental and clinical tests of potassium bioavailability. The conditions noted are these: in presence of xylitol and/or citric acid. The source says: As compared to previous cardioplegic solutions the preparation according to the invention has a higher potassium concentration. […] By increasing thus the initial content of potassium in the cardioplegic solution, the concentration necessary to achieve the cardioplegic effect is guaranteed.

SMILES strings stand for the structures.

Consider `[Cl-].[K+]` [Potassium ions, Potassium chloride], for which the “bioavailability of Potassium ions” value is reported as “reduced bioavailability”.
